In ChEMBL document CHEMBL1201862, “PubChem BioAssay data set” (2004):
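Tested at 5 concentrations; 48 h exposure; 96-well plates; endpoints linearly interpolated, else capped at highest concentration. The concentration for 50% growth inhibition is given as GI50.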 Active and inactive are the calls of the source. Rule as the data show it: active = GI50 up to about 1.1 µM and inactive = higher.

Experiments:
Assay in all cases: NCI anticancer screen, dose series, 48 h
[1] = system: CCRF-CEM
[2] = system: EKVX
[3] = system: HCT-15
[4] = system: HOP-62
[5] = system: HT-29
[6] = system: K562
[7] = system: LOX IMVI
[8] = system: MOLT-4
[9] = system: OVCAR-4
[10] = system: OVCAR-8
[11] = system: RPMI-8226
[12] = system: SF-268
[13] = system: SF-295
[14] = system: SF-539
[15] = system: SN12C
[16] = system: HOP-92
[17] = system: SK-OV-3

Compound | GI50 [1] | GI50 [2] | GI50 [3] | GI50 [4] | GI50 [5] | GI50 [6] | GI50 [7] | GI50 [8] | GI50 [9] | GI50 [10] | GI50 [11] | GI50 [12] | GI50 [13] | GI50 [14] | GI50 [15] | GI50 [16] | GI50 [17]
CCCCCCC(/C=N/O)C(C)(O)CCC (stereo not drawn) | > 100 µM (inactive) | > 100 µM (inactive) | > 100 µM | > 100 µM (inactive) | > 100 µM (inactive) | 84.3 µM (inactive) | > 100 µM (inactive) | 61.7 µM (inactive) | > 100 µM (inactive) | > 100 µM (inactive) | 54 µM (inactive) | > 100 µM (inactive) | > 100 µM (inactive) | > 100 µM (inactive) | > 100 µM (inactive) | – | –
O=C1[C@@H]2C(c3ccccc3[N+](=O)[O-])=NO[C@@H]2C(=O)N1c1ccc(Cc2ccc(N3C(=O)[C@H]4C(c5ccccc5[N+](=O)[O-])=NO[C@H]4C3=O)cc2)cc1 | > 100 µM (inactive) | > 100 µM (inactive) | > 100 µM | > 100 µM (inactive) | > 100 µM (inactive) | > 100 µM (inactive) | > 100 µM (inactive) | > 100 µM (inactive) | > 100 µM (inactive) | > 100 µM (inactive) | > 100 µM (inactive) | > 100 µM (inactive) | > 100 µM (inactive) | > 100 µM (inactive) | > 100 µM (inactive) | > 100 µM (inactive) | –
OC12c3ccccc3C1CCCCCC21OCCCO1 (stereo not drawn) | > 100 µM (inactive) | – | > 100 µM | > 100 µM (inactive) | > 100 µM (inactive) | > 100 µM (inactive) | > 100 µM (inactive) | > 100 µM (inactive) | > 100 µM (inactive) | > 100 µM (inactive) | > 100 µM (inactive) | > 100 µM (inactive) | > 100 µM (inactive) | > 100 µM (inactive) | > 100 µM (inactive) | – | > 100 µM (inactive)
COC(=O)C(C(=O)C(=O)Nc1nnc(S)[nH]1)c1csc(N)n1 (stereo not drawn) | > 100 µM (inactive) | > 100 µM (inactive) | > 100 µM | > 100 µM (inactive) | > 100 µM (inactive) | > 100 µM (inactive) | > 100 µM (inactive) | > 100 µM (inactive) | > 100 µM (inactive) | > 100 µM (inactive) | > 100 µM (inactive) | > 100 µM (inactive) | > 100 µM (inactive) | > 100 µM (inactive) | > 100 µM (inactive) | – | > 100 µM (inactive)
Cc1cc(N(CCC#N)CCC#N)ccc1/C=C1N=C(/C=C/c2ccccc2)OC(=O)N\1 | > 100 µM (inactive) | > 100 µM (inactive) | > 100 µM | > 100 µM (inactive) | > 100 µM (inactive) | > 100 µM (inactive) | > 100 µM (inactive) | > 100 µM (inactive) | – | > 100 µM (inactive) | > 100 µM (inactive) | > 100 µM (inactive) | 7.41 µM (inactive) | > 100 µM (inactive) | > 100 µM (inactive) | – | 92.3 µM (inactive)
CCOC(=O)CC1(C(=O)OCC)c2[nH]c3ccccc3c2CCN1Cc1ccccc1 (stereo not drawn) | 23.7 µM (inactive) | 21.8 µM (inactive) | 29.2 µM | 18.1 µM (inactive) | 14.4 µM (inactive) | 16.9 µM (inactive) | 18.5 µM (inactive) | 13.5 µM (inactive) | 19.2 µM (inactive) | 23.7 µM (inactive) | – | 20.2 µM (inactive) | 16.8 µM (inactive) | 19.9 µM (inactive) | 14.2 µM (inactive) | 17.5 µM (inactive) | 28.5 µM (inactive)
COc1ccc(OC)c2c3c(ccc12)C(c1ccccc1)OC3=O (stereo not drawn) | 64 µM (inactive) | > 100 µM (inactive) | 61 µM | 73.5 µM (inactive) | 58.3 µM (inactive) | 47.2 µM (inactive) | 56.5 µM (inactive) | 32.9 µM (inactive) | 70.1 µM (inactive) | 39.4 µM (inactive) | 24.9 µM (inactive) | > 100 µM (inactive) | 52.6 µM (inactive) | – | 94.2 µM (inactive) | – | > 100 µM (inactive)
COc1ccc(-c2onc(-c3c(C)cc(C)cc3C)c2C2=NCCCN2)cc1 | 35 µM (inactive) | 96.8 µM (inactive) | 39.1 µM | > 100 µM (inactive) | 31.2 µM (inactive) | 28.8 µM (inactive) | 43.3 µM (inactive) | 41 µM (inactive) | 49.9 µM (inactive) | 58.9 µM (inactive) | 23.6 µM (inactive) | 36.7 µM (inactive) | 22.8 µM (inactive) | 21.6 µM (inactive) | 50.8 µM (inactive) | – | 30.6 µM (inactive)
Cn1ccc2c(C(=O)c3ccccc3)cccc2c1=O | 32.7 µM (inactive) | > 100 µM (inactive) | 25.8 µM | 31 µM (inactive) | 44.2 µM (inactive) | – | 54.3 µM (inactive) | 38 µM (inactive) | 95.5 µM (inactive) | 56 µM (inactive) | 33.2 µM (inactive) | 97.7 µM (inactive) | 20.7 µM (inactive) | 29.6 µM (inactive) | 59.2 µM (inactive) | 49.2 µM (inactive) | 70.8 µM (inactive)
COc1cc(C(C)c2cc3c(cc2OCCCCCOc2cc4c(cc2C(C)c2cc(OC)c(OC)c(OC)c2)OCO4)OCO3)cc(OC)c1OC (stereo not drawn) | > 100 µM (inactive) | > 100 µM (inactive) | > 100 µM | > 100 µM (inactive) | > 100 µM (inactive) | > 100 µM (inactive) | > 100 µM (inactive) | > 100 µM (inactive) | > 100 µM (inactive) | > 100 µM (inactive) | > 100 µM (inactive) | > 100 µM (inactive) | > 100 µM (inactive) | > 100 µM (inactive) | > 100 µM (inactive) | – | –
COc1ccc(NC(=O)CCc2cc(C(C)(C)C)[nH]n2)cc1 | > 100 µM (inactive) | > 100 µM (inactive) | > 100 µM | > 100 µM (inactive) | > 100 µM (inactive) | > 100 µM (inactive) | > 100 µM (inactive) | > 100 µM (inactive) | – | > 100 µM (inactive) | > 100 µM (inactive) | > 100 µM (inactive) | > 100 µM (inactive) | > 100 µM (inactive) | > 100 µM (inactive) | > 100 µM (inactive) | > 100 µM (inactive)
O=C1OC(c2cccc(C(F)(F)F)c2)c2ccc3ccccc3c21 (stereo not drawn) | 9.06 µM (inactive) | > 10 µM (inactive) | 8.22 µM | > 10 µM (inactive) | > 10 µM (inactive) | 4.76 µM (inactive) | 8.45 µM (inactive) | 6.31 µM (inactive) | > 10 µM (inactive) | > 10 µM (inactive) | – | > 10 µM (inactive) | 12.2 µM (inactive) | > 100 µM (inactive) | > 10 µM (inactive) | 91.8 µM (inactive) | > 10 µM (inactive)
NC(=S)N/C=C1\C(=O)Oc2ccccc2C1=O | > 100 µM (inactive) | > 100 µM (inactive) | 48 µM | – | > 100 µM (inactive) | > 100 µM (inactive) | > 100 µM (inactive) | > 100 µM (inactive) | > 100 µM (inactive) | 56.5 µM (inactive) | > 100 µM (inactive) | 24.7 µM (inactive) | > 100 µM (inactive) | 34 µM (inactive) | 37.2 µM (inactive) | 35.5 µM (inactive) | 51.2 µM (inactive)
